Assay [1] relates to HT-1080. Description: Growth inhibition of human HT1080 cells at 2.5 uM after 72 hrs by SRB assay relative to control. It counts as functional. The following applies: HT-1080, 72 h, read-out: GI. (In general: The SRB assay estimates cell density from bound dye.)
The test system of assay [2] is U-87 MG. Description: Growth inhibition of human U87MG cells at 2.5 uM after 72 hrs by SRB assay relative to control. The following applies: read-out: GI. It counts as functional, U-87MG ATCC.
Assay [3] deals with U2OS. Put plainly: Growth inhibition of human U2OS cells at 2.5 uM after 72 hrs by SRB assay relative to control. The following applies: read-out: GI. The assay is classed as functional.
Assay [4] concerns HT-1080. Put plainly: Effect on MMP9 mRNA expression in human HT1080 cells assessed as MMP9 mRNA level at 2.5 uM after 24 hrs by qPCR method (reference value: 100%). The assay is classed as functional. (Quantitative PCR measures a nucleic acid by following its amplification.)
Assay [5] concerns HT-1080. Description: Effect on growth factor mRNA expression in human HT1080 cells assessed as VEGF mRNA level at 2.5 uM after 24 hrs by qPCR method (reference value: 100%). It counts as functional.
Assay [6] deals with HT-1080. The following applies: Homo sapiens, 2.5 uM.
Description: Inhibition of cell adhesion in human HT1080 cells at 2.5 uM incubated for 18 to 20 hrs by crystal violet staining based assay
Assay [7] deals with HT-1080. Put plainly: Effect on growth factor mRNA expression in human HT1080 cells assessed as FGF2 mRNA level at 2.5 uM after 24 hrs by qPCR method (reference value: 100%). It counts as functional.
Assay [8] relates to HT-1080. Put plainly: Effect on HPSE1 mRNA expression in human HT1080 cells assessed as HPSE1 mRNA level at 2.5 uM after 24 hrs by qPCR method (reference value: 100%). It counts as functional.
For assay [9], the system named is HT-1080. Put plainly: Effect on growth factor mRNA expression in human HT1080 cells assessed as FGF1 mRNA level at 2.5 uM after 24 hrs by qPCR method (reference value: 100%). It counts as functional.
Assay [10] concerns HT-1080. Put plainly: Anti-invasive activity against human HT1080 cells at 2.5 uM incubated for 24 hrs measured for 24 hrs by crystal violet staining based inverted microscopic method relative to control. The assay is classed as functional.
In assay [11] the target is T1, Heparanase (Mus musculus, UniProt Q6YGZ1).
T1 sequence (Q6YGZ1 whole entry): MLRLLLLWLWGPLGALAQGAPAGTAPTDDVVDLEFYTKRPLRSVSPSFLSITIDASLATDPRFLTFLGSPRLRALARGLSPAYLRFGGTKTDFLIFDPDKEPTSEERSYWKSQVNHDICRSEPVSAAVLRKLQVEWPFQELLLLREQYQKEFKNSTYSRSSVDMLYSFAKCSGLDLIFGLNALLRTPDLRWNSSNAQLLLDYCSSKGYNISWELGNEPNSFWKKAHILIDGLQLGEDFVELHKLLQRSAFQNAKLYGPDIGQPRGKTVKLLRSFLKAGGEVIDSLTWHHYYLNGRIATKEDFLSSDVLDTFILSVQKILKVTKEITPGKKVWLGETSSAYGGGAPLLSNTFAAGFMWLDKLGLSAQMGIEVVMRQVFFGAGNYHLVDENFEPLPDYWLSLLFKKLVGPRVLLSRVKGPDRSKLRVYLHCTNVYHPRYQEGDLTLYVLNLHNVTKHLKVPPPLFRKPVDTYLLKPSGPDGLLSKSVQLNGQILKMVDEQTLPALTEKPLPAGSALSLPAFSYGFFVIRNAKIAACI
Description: Inhibition of mouse B16-BL6 cells derived heparanase using [3H]HS as substrate after 6 hrs by size exclusion chromatography based liquid scintillation counting method.

Consider nine compounds from ChEMBL document CHEMBL4177565, “Arylamidonaphtalene sulfonate compounds as a novel class of heparanase inhibitors” (Bioorg Med Chem Lett, 2017).

The source made the active and inactive calls. No cut-off for these calls is given here.

The Ki is a measure of affinity in units of concentration, obtained from inhibition or displacement. A low value points to higher affinity.

With `O=C(Nc1cccc(C(=O)Nc2cc(C(=O)Nc3ccc4c(S(=O)(=O)O)cccc4c3S(=O)(=O)O)n(C3CC3)c2)c1)Nc1cccc(C(=O)Nc2cc(C(=O)Nc3ccc4c(S(=O)(=O)O)cccc4c3S(=O)(=O)O)n(C3CC3)c2)c1`, the inhibition of growth at 2.5 µM in assay [1], in assay [2] and in assay [3] was less than 50% throughout.

As to `Cn1cc(NC(=O)Nc2cc(C(=O)Nc3cccc(C(=O)Nc4ccc5c(S(=O)(=O)[O-])cccc5c4S(=O)(=O)[O-])c3)n(C)c2)cc1C(=O)Nc1cccc(C(=O)Nc2ccc3c(S(=O)(=O)[O-])cccc3c2S(=O)(=O)[O-])c1.[Na+].[Na+].[Na+].[Na+]`, the inhibition of growth at 2.5 µM in assay [1], in assay [2] and in assay [3] was less than 50% each time. In addition, the Activity is 80% in assay [4]; 85% in assay [5]; 98% in assay [7]; 4% in [8]; 87% in [9]; more than 90% in [10]. Moreover, the inhibition result in assay [6] is “Active”.

As for `Cn1cc(NC(=O)c2cc(NC(=O)Nc3cc(C(=O)Nc4cc(C(=O)Nc5ccc6c(S(=O)(=O)O)cccc6c5S(=O)(=O)O)n(C)c4)cc(C(F)(F)F)c3)cc(C(F)(F)F)c2)cc1C(=O)Nc1ccc2c(S(=O)(=O)O)cccc2c1S(=O)(=O)O`, the inhibition of growth at 2.5 µM in assay [1], in assay [2] and in assay [3] was less than 50% each time.

Turning to `Cc1ccc(C(=O)Nc2ccc(S(=O)(=O)O)c3cc(S(=O)(=O)O)cc(S(=O)(=O)O)c23)cc1NC(=O)c1cccc(NC(=O)Nc2cccc(C(=O)Nc3cc(C(=O)Nc4ccc(S(=O)(=O)O)c5cc(S(=O)(=O)O)cc(S(=O)(=O)O)c45)ccc3C)c2)c1` [SURAMIN], the affinity in [11] corresponds to a Ki of 48 µM.

Regarding `Cn1cc(NC(=O)c2ccc(F)c(NC(=O)Nc3cc(C(=O)Nc4cc(C(=O)Nc5ccc6c(S(=O)(=O)O)cccc6c5S(=O)(=O)O)n(C)c4)ccc3F)c2)cc1C(=O)Nc1ccc2c(S(=O)(=O)O)cccc2c1S(=O)(=O)O`, the inhibition of growth at 2.5 µM in assay [1], in assay [2] and in [3] was less than 50% each time.

As to `Cc1c(NC(=O)c2cccc(NC(=O)Nc3cccc(C(=O)Nc4cc(C(=O)Nc5ccc6c(S(=O)(=O)O)cccc6c5S(=O)(=O)O)n(C)c4C)c3)c2)cc(C(=O)Nc2ccc3c(S(=O)(=O)O)cccc3c2S(=O)(=O)O)n1C`, the inhibition of growth at 2.5 µM in assay [1], in [2] and in assay [3] was less than 50% each time.

For `Cn1cc(NC(=O)c2cccc(NC(=O)Nc3cccc(C(=O)Nc4cc(C(=O)Nc5ccc6c(S(=O)(=O)O)cccc6c5S(=O)(=O)O)n(C)c4)c3)c2)cc1C(=O)Nc1ccc2c(S(=O)(=O)O)cccc2c1S(=O)(=O)O`, the inhibition of growth at 2.5 µM in assay [1], in assay [2] and in [3] was less than 50% throughout.

`Cn1cc(NC(=O)Nc2cc(C(=O)Nc3cc(C(=O)Nc4ccc5c(S(=O)(=O)[O-])cccc5c4S(=O)(=O)[O-])n(C)c3)n(C)c2)cc1C(=O)Nc1cc(C(=O)Nc2ccc3c(S(=O)(=O)[O-])cccc3c2S(=O)(=O)[O-])n(C)c1.[Na+].[Na+].[Na+].[Na+]`: the Activity in assay [4] was found to be 100%; in assay [5], 100%; in assay [7], 86%; in assay [8], 1%; in assay [9], 44%.

With `Cc1ccc(C(=O)Nc2ccc3c(S(=O)(=O)O)cccc3c2S(=O)(=O)O)cc1NC(=O)c1cc(NC(=O)Nc2cc(C(=O)Nc3cc(C(=O)Nc4ccc5c(S(=O)(=O)O)cccc5c4S(=O)(=O)O)ccc3C)n(C)c2)cn1C`, the inhibition of growth at 2.5 µM in [1], in assay [2] and in [3] was less than 50% each time.
